# Assays:
# Experiment in all cases: relative viability (nuclei count vs DMSO), 5 days (fraction); higher = more cells survive
# Nelarabine + Luminespib = compound: COc1nc(N)nc2c1ncn2[C@@H]1O[C@H](CO)[C@@H](O)[C@@H]1O [Nelarabine] + CCNC(=O)c1noc(-c2cc(C(C)C)c(O)cc2O)c1-c1ccc(CN2CCOCC2)cc1 [Luminespib] (partner 0.01 µM)
# Procedure, shortened: (§1)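 Dosing by pin tool came one day after lung cancer cell lines were seeded in 1536-well plates, using either one drug or a fixed anchor-drug dose plus five library-drug doses (not always all listed) in √10 steps. After 5 days, nuclei were counted on 4× images. Relative viability is treated-well nuclei count divided by vehicle-well nuclei count, and values are medians of duplicate plates.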
# Nelarabine + Alpelisib = compound: COc1nc(N)nc2c1ncn2[C@@H]1O[C@H](CO)[C@@H](O)[C@@H]1O [Nelarabine] + Cc1nc(NC(=O)N2CCC[C@H]2C(N)=O)sc1-c1ccnc(C(C)(C)C(F)(F)F)c1 [Alpelisib] (partner 2 µM)
# Procedure, shortened: as §1
# Adavosertib + Navitoclax = compound: C=CCn1c(=O)c2cnc(Nc3ccc(N4CCN(C)CC4)cc3)nc2n1-c1cccc(C(C)(C)O)n1 [Adavosertib] + CC1(C)CCC(c2ccc(Cl)cc2)=C(CN2CCN(c3ccc(C(=O)NS(=O)(=O)c4ccc(N[C@H](CCN5CCOCC5)CSc5ccccc5)c(S(=O)(=O)C(F)(F)F)c4)cc3)CC2)C1 [Navitoclax] (partner 0.5 µM)
# Procedure, shortened: as §1
# Adavosertib + Phenformin = compound: C=CCn1c(=O)c2cnc(Nc3ccc(N4CCN(C)CC4)cc3)nc2n1-c1cccc(C(C)(C)O)n1 [Adavosertib] + N=C(N)NC(=N)NCCc1ccccc1 [Phenformin] (partner 250 µM)
# Procedure, shortened: as §1
Cell Line,relative viability (Nelarabine + Luminespib; first compound 0.01 µM),relative viability (Nelarabine + Luminespib; first compound 0.03162 µM),relative viability (Nelarabine + Luminespib; first compound 0.1 µM),relative viability (Nelarabine + Luminespib; first compound 0.3162 µM),relative viability (Nelarabine + Luminespib; first compound 1 µM),relative viability (Nelarabine + Alpelisib; first compound 0.01 µM),relative viability (Nelarabine + Alpelisib; first compound 0.03162 µM),relative viability (Nelarabine + Alpelisib; first compound 0.1 µM),relative viability (Nelarabine + Alpelisib; first compound 0.3162 µM),relative viability (Nelarabine + Alpelisib; first compound 1 µM),relative viability (Adavosertib + Navitoclax; first compound 0.01 µM),relative viability (Adavosertib + Navitoclax; first compound 0.03162 µM),relative viability (Adavosertib + Navitoclax; first compound 0.1 µM),relative viability (Adavosertib + Navitoclax; first compound 0.3162 µM),relative viability (Adavosertib + Phenformin; first compound 0.01 µM),relative viability (Adavosertib + Phenformin; first compound 0.03162 µM),relative viability (Adavosertib + Phenformin; first compound 0.1 µM),relative viability (Adavosertib + Phenformin; first compound 0.3162 µM)
UMC-11,1.24,0.961,1.03,0.973,0.893,1.1,0.597,0.909,1.02,0.96,0.311,0.287,0.331,0.321,0.341,0.315,0.318,0.29
NCI-H1975,0.237,0.244,0.169,0.198,0.464,0.785,0.489,0.73,0.773,0.764,1.17,1.25,1.01,0.483,0.419,0.392,0.389,0.309
NCI-H2405,0.697,0.844,0.646,0.762,0.696,0.842,0.794,0.74,0.647,0.801,0.869,1.01,0.98,0.996,0.458,0.414,0.405,0.396
NCI-H1734,0.193,0.161,0.193,0.209,0.187,0.746,0.67,0.709,0.653,0.704,0.866,0.818,0.877,0.821,0.411,0.367,0.374,0.264
NCI-H1993,0.861,0.721,0.917,0.965,0.798,0.704,0.736,0.756,0.712,0.689,1.02,0.977,1.01,0.934,0.527,0.537,0.475,0.589
NCI-H1792,0.406,0.537,0.451,0.425,0.55,0.908,–,0.83,0.688,0.828,0.529,0.659,0.655,0.643,0.27,0.217,–,0.259
NCI-H358,0.409,–,0.28,0.308,0.309,0.906,0.839,0.62,0.845,0.857,–,–,–,–,0.288,0.295,0.322,0.24
Calu-6,–,–,–,–,–,1.1,–,0.979,0.972,1.11,0.819,0.898,0.88,0.239,–,–,–,–
PC-14,0.145,0.177,0.118,0.178,0.151,0.857,0.97,1.02,1.04,0.947,1.06,0.963,1.02,0.528,0.508,0.619,0.671,0.291
NCI-H520,0.252,0.249,0.184,0.27,0.218,1.16,0.924,1.16,1.03,1.1,1.12,1.1,1.09,0.791,0.667,0.547,0.657,0.757
IA-LM,–,–,–,–,–,0.928,0.957,0.789,0.871,0.826,0.821,0.742,0.976,0.668,–,–,–,–
A549,–,–,–,–,–,0.885,0.879,0.783,0.818,0.858,1.21,1.26,1.26,0.901,0.218,0.229,0.14,0.173
NCI-H650,0.857,0.726,0.759,0.708,0.718,1.38,1.08,1,1.14,1.24,–,–,–,–,0.422,0.498,0.458,0.377
HCC-78,–,–,–,–,–,0.349,0.336,–,0.349,0.4,0.81,0.686,0.894,0.79,0.582,0.744,0.821,0.704
ABC-1,0.71,0.705,0.535,0.309,0.859,1.06,1.3,1.24,0.937,1.08,–,–,–,–,0.228,0.237,0.208,0.222
SW 900,0.175,0.175,0.173,0.179,0.179,–,–,–,–,–,–,–,–,–,–,0.75,0.564,0.387
NCI-H1623,0.467,0.574,0.588,0.483,0.621,–,–,–,–,–,–,–,–,–,0.553,0.629,0.563,0.652
EBC-1,–,–,–,–,–,0.86,0.829,0.941,0.87,0.951,0.416,0.413,0.448,0.205,–,–,–,–
NCI-H2342,0.775,0.707,0.657,0.753,0.765,–,–,–,–,–,–,–,–,–,0.569,0.587,0.571,0.572
NCI-H1563,0.527,0.58,0.584,0.549,0.564,0.956,0.858,0.886,1,0.919,–,–,–,–,0.692,0.603,0.667,0.642
ChaGo-K-1,0.821,0.361,0.637,0.659,0.562,–,–,–,–,–,0.84,0.877,0.934,0.729,0.469,0.506,0.484,0.457
HCC-366,–,–,–,–,–,0.468,0.267,0.308,0.517,0.47,0.983,1.07,1.12,1.08,0.622,0.678,0.626,0.674
LCLC-103H,1.26,0.905,0.969,1.06,0.99,1.01,0.989,0.985,0.936,0.956,–,–,–,–,0.347,0.372,0.319,0.3
NCI-H1299,–,–,–,–,–,1.16,1.11,1.04,1.08,1.2,1.08,1.03,1.06,1.06,–,–,–,–
